Measurements taken from patent US4315933A, “Antibacterial amide compounds and pharmaceutical compositions containing the same” (Warner-Lambert Company, priority 1980, dated 1982).
Values after ≈ are worked out from the molar mass of the structure shown.

Columns and labels:
Experiment in all cases: Minimal Inhibitory Concentration, in vitro
Type in all cases: cell-based
[1] = test system: Pseudomonas aeruginosa #28
Serr. marces. = test system: Serr. marces.
Kleb. pneu. = test system: Kleb. pneu.
Entero. cloacae = details: for MIC: Enterobacter cloacae
Staph. aureus S18713 = details: for MIC: Staphylococcus aureus

Molecule | Minimal Inhibitory Concentration [1] [µg/mL] | Minimal Inhibitory Concentration (Serr. marces.) [µg/mL] | Minimal Inhibitory Concentration (Kleb. pneu.) [µg/mL] | Minimal Inhibitory Concentration (Entero. cloacae) | MIC [1] [µg/mL] | MIC (Entero. cloacae) [µg/mL] | MIC (Serr. marces.) [µg/mL] | MIC (Kleb. pneu.) [µg/mL] | MIC (Staph. aureus S18713) [µg/mL] | Minimal Inhibitory Concentration (Staph. aureus S18713) [µg/mL]
N-[2-[4-(Acetylamino)phenyl]-4-hydroxy-5-pyrimidinylcarbonyl]amoxicillin [Example 2] | 1.6 | 200 | 6.3 | – | – | – | – | – | – | –
N-[2-[4-[(2-Ethoxy-1,2-dioxoethyl)amino]phenyl]-4-hydroxy-5-pyrimidinylcarbonyl]amoxicillin [Example 6] | 1.6 | – | 25 | 12,5 μg/ml | – | – | – | – | – | –
COCC(=O)Nc1ccc(-c2ncc(C(=O)N[C@@H](C(=O)N[C@@H]3C(=O)N4[C@@H]3SC(C)(C)[C@@H]4C(=O)O)c3ccccc3)c(O)n2)cc1 [Example 5, N-[2-[4-(Methoxyacetylamino)phenyl]-4-hydroxy-5-pyrimidinylcarbonyl]ampicillin] | – | – | – | – | 3.1 (≈ 4.88 µM) | 12.5 (≈ 19.7 µM) | 100 (≈ 158 µM) | 25 (≈ 39.4 µM) | 100 (≈ 158 µM) | –
N-[2-[4-(Trifluoroacetylamino)phenyl]-4-hydroxy-5-pyrimidinylcarbonyl]amoxicillin [Example 3] | 0.8 | 3.1 | 12.5 | 6.3 µg/mL | – | – | – | – | – | > 50
N-[2-[4-[(2,2,2-Trifluoroethyl)thio]acetylamino]phenyl]-4-hydroxy-5-pyrimidinylcarbonyl]amoxicillin [Example 7] | – | 200 | 50 | – | – | – | – | – | – | 50
CC1(C)S[C@@H]2[C@H](NC(=O)[C@H](NC(=O)c3cnc(-c4ccc(NC(=O)CC#N)cc4)nc3O)c3ccc(O)cc3)C(=O)N2[C@H]1C(=O)O [Example 4, N-[2-[4-(Cyanoacetylamino)phenyl]-4-hydroxy-5-pyrimidinylcarbonyl]amoxicillin] | – | – | – | – | 0.8 (≈ 1.24 µM) | 3.1 (≈ 4.8 µM) | 3.1 (≈ 4.8 µM) | 25 (≈ 38.7 µM) | > 50 | –
CCNC(=O)Nc1ccc(-c2ncc(C(=O)N[C@@H](C(=O)N[C@@H]3C(=O)N4[C@@H]3SC(C)(C)[C@@H]4C(=O)O)c3ccc(O)cc3)c(O)n2)cc1 [Example 8, N-[2-[4-(N-Ethylcarbamoylamino)phenyl]-4-hydroxy-5-pyrimidinylcarbonyl]amoxicillin] | – | – | – | – | 0.8 (≈ 1.23 µM) | 6.3 (≈ 9.7 µM) | 3.1 (≈ 4.77 µM) | 12.5 (≈ 19.2 µM) | > 50 | –
N-[2-[4-(Dichloroacetylamino)phenyl]-4-hydroxy-5-pyrimidinylcarbonyl]amoxicillin [Example 1] | 1.6 | 200 | 12.5 | 1.6 µg/mL | – | – | – | – | – | 50
